The values below come from ChEMBL document CHEMBL1811872, “Tryptophan 2,3-dioxygenase (TDO) inhibitors. 3-(2-(pyridyl)ethenyl)indoles as potential anticancer immunomodulators” (J Med Chem, 2011).

Calls of active or inactive are those of the source. The rule behind the calls is not given here.

In assay [1] the target is D(2) dopamine receptor (Homo sapiens) (UniProt P14416). In words: Displacement of [3H]methyl-spiperone from human dopamine D2s receptor at 10 uM relative to control.
Assay [2] has as its system P815B. In words: Antitumor activity against mouse P815B cells expressing TDO xenografted in immunized mouse assessed as tumor growth inhibition at 160 mg/kg/day, po administered with water. The assay is classed as functional, organism-based.
Assay [3] is described as follows: Displacement of [3H]prazosin from adrenergic alpha1 receptor at 10 uM relative to control. In general terms: Displacement assays read how much labelled ligand stays bound in the presence of the test substance.
Assay [4] concerns the target Indoleamine 2,3-dioxygenase 1 (Homo sapiens) (UniProt P14902). In words: Inhibition of IDO at 10 uM.
Assay [5] addresses Melatonin receptor type 1A (Homo sapiens) (UniProt P48039). In words: Displacement of [125I]2-iodomelatonin from human MT1 receptor at 10 uM relative to control.
Assay [6] addresses Beta-2 adrenergic receptor (Homo sapiens) (UniProt P07550). In words: Displacement of [3H](-)-CGP12177 from human adrenergic beta2 receptor at 10 uM relative to control.
Assay [7] concerns the target Sodium-dependent serotonin transporter (Homo sapiens) (UniProt P31645). In words: Displacement of [3H]imipramine from human 5HT transporter at 10 uM relative to control.
The target in assay [8] is Sodium-dependent dopamine transporter (Homo sapiens) (UniProt Q01959). In words: Displacement of [3H]BTCP from human DA transporter at 10 uM relative to control.
Chain of Sodium-dependent dopamine transporter (Homo sapiens) (Q01959 whole entry): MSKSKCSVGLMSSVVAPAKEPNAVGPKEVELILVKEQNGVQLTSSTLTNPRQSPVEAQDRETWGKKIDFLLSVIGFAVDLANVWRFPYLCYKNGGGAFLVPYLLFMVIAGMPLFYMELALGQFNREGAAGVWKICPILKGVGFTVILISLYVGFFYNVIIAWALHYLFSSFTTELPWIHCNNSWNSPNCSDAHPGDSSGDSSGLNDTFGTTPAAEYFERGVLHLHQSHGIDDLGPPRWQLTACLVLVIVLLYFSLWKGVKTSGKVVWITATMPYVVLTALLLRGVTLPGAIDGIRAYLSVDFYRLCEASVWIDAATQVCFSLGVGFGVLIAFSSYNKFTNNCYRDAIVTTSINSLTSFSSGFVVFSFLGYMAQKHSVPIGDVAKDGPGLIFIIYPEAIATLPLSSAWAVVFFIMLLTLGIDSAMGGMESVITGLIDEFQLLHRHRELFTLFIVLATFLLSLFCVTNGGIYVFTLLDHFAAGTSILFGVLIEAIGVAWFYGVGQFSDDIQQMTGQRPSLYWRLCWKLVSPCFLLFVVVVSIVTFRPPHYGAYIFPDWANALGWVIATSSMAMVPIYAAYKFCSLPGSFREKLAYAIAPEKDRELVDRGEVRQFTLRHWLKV
Assay [9] has as its target T1, 5-hydroxytryptamine receptor 1A (Homo sapiens) (UniProt P08908).
T1 sequence (whole entry): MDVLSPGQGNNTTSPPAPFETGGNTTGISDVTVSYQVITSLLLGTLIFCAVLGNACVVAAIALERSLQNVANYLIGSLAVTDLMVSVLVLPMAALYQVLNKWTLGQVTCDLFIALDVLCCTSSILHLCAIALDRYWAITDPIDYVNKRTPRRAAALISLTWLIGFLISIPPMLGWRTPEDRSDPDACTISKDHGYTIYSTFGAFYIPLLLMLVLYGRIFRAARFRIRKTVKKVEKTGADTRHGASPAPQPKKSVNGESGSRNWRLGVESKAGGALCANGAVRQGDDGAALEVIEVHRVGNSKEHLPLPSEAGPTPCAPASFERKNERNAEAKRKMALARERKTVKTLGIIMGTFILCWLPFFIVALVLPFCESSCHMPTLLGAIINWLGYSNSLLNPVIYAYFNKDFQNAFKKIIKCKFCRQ
In words: Displacement of [3H]8-OH-DPAT from human 5HT1A receptor at 10 uM relative to control.

The target of assay [10] is 5-hydroxytryptamine receptor 2A (Homo sapiens) (UniProt P28223). In words: Displacement of [3H]ketanserin from human 5HT2A receptor at 10 uM relative to control.
Chain of 5-hydroxytryptamine receptor 2A (Homo sapiens) (P28223 whole entry): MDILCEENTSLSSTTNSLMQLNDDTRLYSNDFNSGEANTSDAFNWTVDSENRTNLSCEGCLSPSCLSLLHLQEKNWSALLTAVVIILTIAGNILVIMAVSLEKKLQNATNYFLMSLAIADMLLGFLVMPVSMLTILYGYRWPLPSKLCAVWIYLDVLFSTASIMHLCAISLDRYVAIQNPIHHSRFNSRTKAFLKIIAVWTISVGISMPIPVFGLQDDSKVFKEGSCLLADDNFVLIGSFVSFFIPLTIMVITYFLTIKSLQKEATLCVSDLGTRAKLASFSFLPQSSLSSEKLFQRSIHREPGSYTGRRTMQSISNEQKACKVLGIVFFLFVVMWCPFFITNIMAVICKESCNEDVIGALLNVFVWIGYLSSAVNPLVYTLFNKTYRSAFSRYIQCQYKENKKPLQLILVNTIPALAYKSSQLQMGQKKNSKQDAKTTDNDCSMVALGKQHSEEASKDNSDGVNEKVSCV
In assay [11] the target is 5-hydroxytryptamine receptor 6 (Homo sapiens) (UniProt P50406). In words: Displacement of [3H]LSD from human 5HT6 receptor at 10 uM relative to control.
The nature of assay [12]: Displacement of [3H]RX821002 from adrenergic alpha2 receptor at 10 uM relative to control.
Assay [13] deals with Sodium-dependent noradrenaline transporter (Homo sapiens) (UniProt P23975). In words: Displacement of [3H]nisoxetine from human NE transporter at 10 uM relative to control.
Chain of Sodium-dependent noradrenaline transporter (Homo sapiens) (P23975 whole entry): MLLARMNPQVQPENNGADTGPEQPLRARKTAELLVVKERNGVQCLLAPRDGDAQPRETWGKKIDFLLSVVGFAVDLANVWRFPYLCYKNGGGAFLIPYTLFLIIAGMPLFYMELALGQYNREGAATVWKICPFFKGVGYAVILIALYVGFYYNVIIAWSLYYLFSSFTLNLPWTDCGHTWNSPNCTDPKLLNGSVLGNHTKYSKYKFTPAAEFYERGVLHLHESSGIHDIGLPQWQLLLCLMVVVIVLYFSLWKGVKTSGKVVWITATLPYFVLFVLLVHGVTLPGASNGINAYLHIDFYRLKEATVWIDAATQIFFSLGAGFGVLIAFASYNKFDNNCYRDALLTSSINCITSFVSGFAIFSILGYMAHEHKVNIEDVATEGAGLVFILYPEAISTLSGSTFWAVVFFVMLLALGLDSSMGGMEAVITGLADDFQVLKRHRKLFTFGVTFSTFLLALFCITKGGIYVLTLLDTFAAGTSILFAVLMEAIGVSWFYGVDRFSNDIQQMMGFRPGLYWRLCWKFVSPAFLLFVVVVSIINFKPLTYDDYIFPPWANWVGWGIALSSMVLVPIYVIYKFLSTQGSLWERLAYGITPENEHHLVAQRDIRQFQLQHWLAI
Assay [14] has as its target Beta-1 adrenergic receptor (Homo sapiens) (UniProt P08588). In words: Displacement of [3H](-)-CGP12177 from human adrenergic beta1 receptor at 10 uM relative to control.
Assay [15] deals with T2, 5-hydroxytryptamine receptor 3A (Homo sapiens) (UniProt P46098).
T2 sequence (whole entry): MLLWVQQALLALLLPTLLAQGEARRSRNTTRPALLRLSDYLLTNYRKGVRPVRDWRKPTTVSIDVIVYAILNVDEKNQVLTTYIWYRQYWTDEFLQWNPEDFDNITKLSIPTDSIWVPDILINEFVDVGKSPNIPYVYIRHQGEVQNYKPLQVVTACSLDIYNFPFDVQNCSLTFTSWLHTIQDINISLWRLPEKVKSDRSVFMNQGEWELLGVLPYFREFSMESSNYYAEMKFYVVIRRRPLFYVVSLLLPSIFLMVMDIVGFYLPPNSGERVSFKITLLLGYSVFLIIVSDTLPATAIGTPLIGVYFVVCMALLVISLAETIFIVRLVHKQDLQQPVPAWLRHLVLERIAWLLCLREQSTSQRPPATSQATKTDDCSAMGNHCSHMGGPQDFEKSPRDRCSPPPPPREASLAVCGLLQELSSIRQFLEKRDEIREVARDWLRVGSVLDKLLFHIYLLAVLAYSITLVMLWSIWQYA
In words: Displacement of [3H]BRL43694 from human 5HT3 receptor at 10 uM relative to control.

The target of assay [16] is 5-hydroxytryptamine receptor 7 (Homo sapiens) (UniProt P34969). In words: Displacement of [3H]LSD from human 5HT7 receptor at 10 uM relative to control.
The target of assay [17] is D(1A) dopamine receptor (Homo sapiens) (UniProt P21728). In words: Displacement of [3H]SCH23390 from human dopamine D1 receptor at 10 uM relative to control.
Chain of D(1A) dopamine receptor (Homo sapiens) (P21728 whole entry): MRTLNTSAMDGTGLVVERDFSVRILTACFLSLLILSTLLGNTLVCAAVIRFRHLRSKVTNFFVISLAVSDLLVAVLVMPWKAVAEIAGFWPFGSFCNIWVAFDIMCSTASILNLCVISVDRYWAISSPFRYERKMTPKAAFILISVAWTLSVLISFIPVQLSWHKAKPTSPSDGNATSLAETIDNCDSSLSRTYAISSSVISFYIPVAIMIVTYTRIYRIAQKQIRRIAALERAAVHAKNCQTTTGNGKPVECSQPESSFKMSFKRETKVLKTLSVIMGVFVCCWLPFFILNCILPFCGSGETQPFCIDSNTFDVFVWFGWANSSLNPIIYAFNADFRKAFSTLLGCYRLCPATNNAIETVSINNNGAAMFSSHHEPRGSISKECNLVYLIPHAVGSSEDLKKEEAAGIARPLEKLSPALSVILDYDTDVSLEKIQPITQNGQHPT
Assay [18] addresses 5-hydroxytryptamine receptor 5A (Homo sapiens) (UniProt P47898). In words: Displacement of [3H]LSD from human 5HT5A receptor at 10 uM relative to control.
Assay [19] has as its target 5-hydroxytryptamine receptor 1B (Homo sapiens) (UniProt P28222). In words: Displacement of [125I]CYP from human 5HT1B receptor at 10 uM relative to control.
Assay [20] addresses 5-hydroxytryptamine receptor 2B (Homo sapiens) (UniProt P41595). In words: Displacement of [125I](+/-)-DOI from human 5HT2B receptor at 10 uM relative to control.

Chain of 5-hydroxytryptamine receptor 2B (Homo sapiens) (P41595 whole entry): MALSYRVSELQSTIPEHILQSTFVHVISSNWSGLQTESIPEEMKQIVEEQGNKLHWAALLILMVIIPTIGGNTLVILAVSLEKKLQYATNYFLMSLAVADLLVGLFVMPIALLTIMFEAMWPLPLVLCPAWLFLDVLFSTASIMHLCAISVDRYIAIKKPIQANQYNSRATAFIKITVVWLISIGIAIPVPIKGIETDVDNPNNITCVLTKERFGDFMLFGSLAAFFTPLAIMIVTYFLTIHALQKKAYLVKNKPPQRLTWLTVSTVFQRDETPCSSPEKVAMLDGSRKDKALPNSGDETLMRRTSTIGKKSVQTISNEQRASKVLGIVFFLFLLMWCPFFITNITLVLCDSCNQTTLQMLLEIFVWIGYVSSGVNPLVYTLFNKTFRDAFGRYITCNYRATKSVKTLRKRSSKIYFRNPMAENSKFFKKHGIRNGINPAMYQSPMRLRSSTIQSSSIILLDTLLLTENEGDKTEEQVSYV
Chain of Indoleamine 2,3-dioxygenase 1 (Homo sapiens) (P14902 whole entry, looked up): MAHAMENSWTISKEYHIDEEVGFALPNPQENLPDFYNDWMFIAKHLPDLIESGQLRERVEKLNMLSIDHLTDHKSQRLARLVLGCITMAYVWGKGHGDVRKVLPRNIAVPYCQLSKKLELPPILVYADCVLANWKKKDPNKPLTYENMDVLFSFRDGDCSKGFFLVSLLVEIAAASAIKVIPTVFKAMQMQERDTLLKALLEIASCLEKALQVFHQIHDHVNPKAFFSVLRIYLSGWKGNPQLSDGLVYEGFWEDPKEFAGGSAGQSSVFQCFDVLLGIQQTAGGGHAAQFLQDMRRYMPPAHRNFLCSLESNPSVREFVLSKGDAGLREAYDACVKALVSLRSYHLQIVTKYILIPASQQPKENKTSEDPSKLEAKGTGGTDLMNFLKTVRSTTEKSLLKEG
Chain of Beta-2 adrenergic receptor (Homo sapiens) (P07550 whole entry, looked up): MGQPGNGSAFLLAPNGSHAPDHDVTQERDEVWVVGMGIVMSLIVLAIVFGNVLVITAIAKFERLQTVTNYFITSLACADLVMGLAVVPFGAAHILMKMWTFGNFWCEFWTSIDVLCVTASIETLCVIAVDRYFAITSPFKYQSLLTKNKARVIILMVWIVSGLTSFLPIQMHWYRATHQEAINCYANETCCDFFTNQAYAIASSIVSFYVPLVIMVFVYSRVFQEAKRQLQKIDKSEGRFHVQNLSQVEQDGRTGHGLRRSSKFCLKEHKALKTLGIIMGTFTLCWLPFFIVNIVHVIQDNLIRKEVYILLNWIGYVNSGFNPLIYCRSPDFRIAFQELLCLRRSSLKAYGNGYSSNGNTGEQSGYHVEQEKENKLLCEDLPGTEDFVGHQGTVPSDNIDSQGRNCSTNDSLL
Chain of Sodium-dependent serotonin transporter (Homo sapiens) (P31645 whole entry, looked up): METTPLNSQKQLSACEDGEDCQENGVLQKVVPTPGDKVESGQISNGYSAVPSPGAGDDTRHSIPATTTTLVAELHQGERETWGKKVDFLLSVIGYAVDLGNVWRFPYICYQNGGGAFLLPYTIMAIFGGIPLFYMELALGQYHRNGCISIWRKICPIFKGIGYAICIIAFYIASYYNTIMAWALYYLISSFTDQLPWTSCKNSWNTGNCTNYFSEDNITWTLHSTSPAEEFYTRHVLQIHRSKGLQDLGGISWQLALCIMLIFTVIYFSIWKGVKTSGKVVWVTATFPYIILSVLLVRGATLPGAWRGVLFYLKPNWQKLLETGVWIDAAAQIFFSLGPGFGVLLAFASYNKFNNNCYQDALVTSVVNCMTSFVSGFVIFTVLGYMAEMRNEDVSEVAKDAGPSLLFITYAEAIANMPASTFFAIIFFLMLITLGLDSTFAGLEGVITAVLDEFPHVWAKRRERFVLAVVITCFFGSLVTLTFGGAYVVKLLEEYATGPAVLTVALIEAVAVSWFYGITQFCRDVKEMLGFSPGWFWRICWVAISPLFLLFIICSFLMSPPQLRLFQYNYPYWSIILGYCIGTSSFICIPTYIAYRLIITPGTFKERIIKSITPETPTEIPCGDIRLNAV
Chain of Beta-1 adrenergic receptor (Homo sapiens) (P08588 whole entry, looked up): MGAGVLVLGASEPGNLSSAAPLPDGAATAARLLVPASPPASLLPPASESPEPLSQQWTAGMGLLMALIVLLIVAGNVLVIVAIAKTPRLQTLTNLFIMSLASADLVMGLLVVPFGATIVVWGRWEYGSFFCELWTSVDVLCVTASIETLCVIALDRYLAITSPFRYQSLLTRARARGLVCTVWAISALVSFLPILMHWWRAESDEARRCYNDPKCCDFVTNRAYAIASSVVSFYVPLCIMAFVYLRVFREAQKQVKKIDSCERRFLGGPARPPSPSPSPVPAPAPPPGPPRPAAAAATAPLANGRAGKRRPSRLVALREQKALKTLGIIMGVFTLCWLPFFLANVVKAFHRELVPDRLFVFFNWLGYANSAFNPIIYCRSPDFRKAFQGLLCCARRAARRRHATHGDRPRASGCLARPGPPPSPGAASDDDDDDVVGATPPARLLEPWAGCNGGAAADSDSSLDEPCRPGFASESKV
Chain of Melatonin receptor type 1A (Homo sapiens) (P48039 whole entry): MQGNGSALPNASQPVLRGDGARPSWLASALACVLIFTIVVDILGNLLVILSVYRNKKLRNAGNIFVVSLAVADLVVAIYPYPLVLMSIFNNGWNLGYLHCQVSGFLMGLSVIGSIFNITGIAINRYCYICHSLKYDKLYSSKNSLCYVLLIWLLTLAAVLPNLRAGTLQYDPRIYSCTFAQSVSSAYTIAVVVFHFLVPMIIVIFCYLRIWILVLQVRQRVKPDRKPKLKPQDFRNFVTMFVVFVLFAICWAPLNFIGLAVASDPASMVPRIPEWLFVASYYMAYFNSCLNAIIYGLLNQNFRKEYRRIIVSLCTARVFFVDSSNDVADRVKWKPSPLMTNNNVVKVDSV

As usually defined, the inhibition is the drop in the measured response relative to a control, in per cent. `Fc1ccc2c(/C=C/c3nnn[nH]3)c[nH]c2c1`: the inhibition in [1] is < 10%; in [3], < 10%; in assay [4], < 10%; in assay [5] it was < 10%; in assay [6] it was < 10%; in assay [7] it was 26%. For the same compound, the inhibition in assay [8], in assay [9], in [10], in assay [11], in assay [12] and in [13] was < 10% in each case. Also, the inhibition in assay [14] is 14%; in assay [15], < 10%; in assay [16] it was < 10%; in assay [17] it was < 10%; in assay [18], < 10%; in assay [19], < 10%. Besides, the inhibition in [20] is < 10%. Besides, in [2], the outcome was Active.
